The record followed here is patent US5439927A, “Imidazoyl-β-oxo-β-benzenepropanethiomide derivative, compositions and method of use thereof” (Mitsubishi Kasei Corporation, priority 1991, dated 1995).

For test [1], the system named is spontaneous hypertensive rats (OKAMOTO-AOKI strain). Nature of the test: Blood pressure lowering in spontaneous hypertensive rats after oral administration (Test Example 2). Type of test: in vivo. Particulars: 2 hours after the dosing, direct method. How it is done:
At a dose of 3 mg/kg or 10 mg/kg, the compound of the present invention was orally administered to spontaneous hypertensive rats (OKAMOTO-AOKI strain) with an average blood pressure of 150 mmHg or more. According to the direct method described by Nakano H. and Takayanagi K., Japanese Journal of Pharmacology, Vol. 25, 25 (1975), blood pressure and cardiac output were measured. Using the compound A used in the Test Example 1 as control, the same test was done.

Test [2] relates to aorta thoracica of a Wistar rat. Put plainly: Suppression of 20 mM K shrinkage (contraction) of rat aorta thoracica (Test Example 1). Particulars: Klebs-Heneleit solution, 37° C., 20 mMK, read-out: Rat aorta IC30 20 mMK (dose of a drug suppressing 30% of 20 mMK shrinkage). The procedure: The aorta thoracica of a Wistar rat was resected and then suspended in a Klebs-Heneleit solution kept at 37° C., according to the Weir and Weston's method (Br. J. Pharmac., 88, 121, (1986)), to determine the dose (IC30 20 mMK) of a drug suppressing 30% of 20 mMK shrinkage. As control, the same test done about the known compound A described in Bull. Soc. Chem. Fr., 1975, 829.

With `CNC(=S)C(C)(C)C(=O)c1ccc(C#N)cc1` [Compound 224], the “Mean blood pressure: Blood pressure decrease” value in test [1] (10 mg/kg) was 38.8 mmHg. The IC30 (as a rule, the concentration at which the effect reaches the 30% level) in test [2] came out at 5 µM.
The matching figures for `CNC(=S)C(C)(C)C(=O)c1ccc(-n2ccnc2)cc1` [Compound 226]: 35.9 mmHg and 13 µM.
Regarding `CNC(=S)C(C)(C)C(=O)c1cccc(-n2ccnc2)c1` [Compound 265], the “Mean blood pressure: Blood pressure decrease” value in test [1] (3 mg/kg) turned out to be 76.5 mmHg. The IC30 in test [2] came out at 0.62 µM.
On to `CNC(=S)C(C)(C)C(=O)c1ccccc1-n1ccnc1` [Compound 302], for which, in test [1] (10 mg/kg), the “Mean blood pressure: Blood pressure decrease” value came to 51.9 mmHg.
As to `CNC(=S)C1(C(=O)c2ccc(-n3ccnc3)cc2)CC1` [Compound 342], in test [1] (10 mg/kg), the “Mean blood pressure: Blood pressure decrease” value worked out at 31.2 mmHg.
On to `CNC(=S)C1(C(=O)c2ccc(-n3ccnc3)cc2)CCC1` [Compound 356, 4-(1-imidazolyl)-N-methyl-β-oxo-α,α-trimethylenebenzenepropanethioamide], for which, in test [1] (10 mg/kg), the “Mean blood pressure: Blood pressure decrease” value is 58.9 mmHg. Also, the IC30 in test [2] stood at 2.1 µM.
On the same counts, the results for `CNC(=S)C1(C(=O)c2ccc(-n3ccnc3C)cc2)CCC1` [Compound 357] are 78.4 mmHg and 0.18 µM.
On the same counts, the results for `CNC(=S)C(C)(C)C(=O)c1ccccc1` [Compound A, N, α, α-trimethyl-β-oxobenzenepropanethioamide, reference compound] are 14.1 mmHg and 13.6 µM.
